Earlier results, collected in patent US10039775B2, “Preparation method for antitumor drug AP26113” (SUZHOU MIRACPHARMA TECHNOLOGY CO., LTD., priority 2015, dated 2018).

Experiments:
[1] = system: ALK positive nonsmall cell lung cancer; conditions: clinical data; patients with ALK positive nonsmall cell lung cancer, including brain metastases patients
ALK = ALK (Homo sapiens, UniProt Q9UM73); conditions: ratio versus crizotinib
[2] = system: crizotinib resistant ALK mutation; conditions: nine identified crizotinib resistant ALK mutations

Chain of ALK (Q9UM73 19-1620): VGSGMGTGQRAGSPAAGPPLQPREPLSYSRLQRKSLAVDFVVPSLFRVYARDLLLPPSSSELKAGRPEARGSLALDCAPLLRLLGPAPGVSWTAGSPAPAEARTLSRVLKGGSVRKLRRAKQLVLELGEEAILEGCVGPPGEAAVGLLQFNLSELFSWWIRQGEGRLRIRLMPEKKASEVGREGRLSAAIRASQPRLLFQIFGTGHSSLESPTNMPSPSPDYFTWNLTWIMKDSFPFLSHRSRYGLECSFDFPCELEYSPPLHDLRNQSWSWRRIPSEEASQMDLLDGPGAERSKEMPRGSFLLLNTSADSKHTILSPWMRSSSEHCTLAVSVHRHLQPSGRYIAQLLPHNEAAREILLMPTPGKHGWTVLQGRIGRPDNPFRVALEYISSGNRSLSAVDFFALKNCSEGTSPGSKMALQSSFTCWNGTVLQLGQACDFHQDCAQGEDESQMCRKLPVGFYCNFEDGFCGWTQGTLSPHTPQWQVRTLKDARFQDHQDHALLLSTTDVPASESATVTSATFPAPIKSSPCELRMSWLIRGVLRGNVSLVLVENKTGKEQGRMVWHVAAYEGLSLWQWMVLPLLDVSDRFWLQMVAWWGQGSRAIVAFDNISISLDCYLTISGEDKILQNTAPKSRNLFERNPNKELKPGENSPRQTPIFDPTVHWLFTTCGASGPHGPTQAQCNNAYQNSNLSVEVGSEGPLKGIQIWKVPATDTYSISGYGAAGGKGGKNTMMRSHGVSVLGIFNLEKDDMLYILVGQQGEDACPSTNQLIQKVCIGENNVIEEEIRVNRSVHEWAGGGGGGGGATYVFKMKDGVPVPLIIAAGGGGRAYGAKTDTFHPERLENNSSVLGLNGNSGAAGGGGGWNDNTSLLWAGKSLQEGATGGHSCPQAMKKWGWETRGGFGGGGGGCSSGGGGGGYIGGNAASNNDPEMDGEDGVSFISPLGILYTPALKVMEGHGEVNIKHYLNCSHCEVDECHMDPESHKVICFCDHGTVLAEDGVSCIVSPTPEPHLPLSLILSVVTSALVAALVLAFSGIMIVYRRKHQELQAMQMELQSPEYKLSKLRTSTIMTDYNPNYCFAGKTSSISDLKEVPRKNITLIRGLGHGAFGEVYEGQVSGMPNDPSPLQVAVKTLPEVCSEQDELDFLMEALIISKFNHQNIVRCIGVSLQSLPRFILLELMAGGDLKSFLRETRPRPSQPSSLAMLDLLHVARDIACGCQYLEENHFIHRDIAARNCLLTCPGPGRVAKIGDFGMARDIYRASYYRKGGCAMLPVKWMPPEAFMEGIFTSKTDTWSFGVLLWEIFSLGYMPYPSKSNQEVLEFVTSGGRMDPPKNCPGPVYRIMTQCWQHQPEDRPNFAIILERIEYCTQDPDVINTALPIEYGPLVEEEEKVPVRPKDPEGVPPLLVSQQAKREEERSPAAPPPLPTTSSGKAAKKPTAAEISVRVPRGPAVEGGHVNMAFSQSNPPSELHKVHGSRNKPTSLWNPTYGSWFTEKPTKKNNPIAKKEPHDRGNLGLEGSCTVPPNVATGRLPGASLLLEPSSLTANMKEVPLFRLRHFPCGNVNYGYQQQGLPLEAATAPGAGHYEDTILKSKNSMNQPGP

COc1cc(N2CCC(N(C)C)CC2)ccc1Nc1ncc(Cl)c(Nc2ccccc2P(C)(C)=O)n1 [AP26113, 5-chloro-N2-[4-[4-(dimethylamino)-1-piperidyl]-2-methoxyphenyl]-N4-[2-(dimethyl phosphitylate)phenyl]-2,4-diaminopyrimidine]
anti-tumor activity on patients [1]: continuous anti-tumor activity
inhibitory activity to ALK relative to the inhibitor activity of crizotinib to ALK (ALK): about 10 times
inhibition of all nine identified crizotinib resistant ALK mutation [2]: can be inhibited
